In the kinase profiling compilation of Christmann-Franck et al. (2016):

Tests used:
Assay in all cases: radiometric filter-binding kinase assay, Kinase HotSpot
Settings in all cases: compound 0.5 µM; ATP 10 µM
ABL1 (human) = ABL1 (human) (UniProt P00519)
ACVRL1 (human) = ACVRL1 (human) (UniProt P37023)
BRSK1 (human) = BRSK1 (human) (UniProt Q8TDC3)
BRSK2 (human) = BRSK2 (human) (UniProt Q8IWQ3)
CAMKK1 (human) = CAMKK1 (human) (UniProt Q8N5S9)
CDK2 CCNA2 (human) = CDK2 CCNA2 (human) (UniProt P24941+P20248)
CDK4 CCND3 (human) = CDK4 CCND3 (human) (UniProt P30281+P11802)
CDK9 CCNK (human) = CDK9 CCNK (human) (UniProt O75909+P50750)
CHEK2 (human) = CHEK2 (human) (UniProt O96017)
CLK3 (human) = CLK3 (human) (UniProt P49761)
CSF1R (human) = CSF1R (human) (UniProt P07333)
CSK (human) = CSK (human) (UniProt P41240)
CSNK1D (human) = CSNK1D (human) (UniProt P48730)
CSNK1E (human) = CSNK1E (human) (UniProt P49674)
CSNK2A2 (human) = CSNK2A2 (human) (UniProt P19784)
DCLK2 (human) = DCLK2 (human) (UniProt Q8N568)
EGFR (human) = EGFR (human) (UniProt P00533)
EPHB3 (human) = EPHB3 (human) (UniProt P54753)
ERBB4 (human) = ERBB4 (human) (UniProt Q15303)
GSG2 (human) = GSG2 (human) (UniProt Q8TF76)
ITK (human) = ITK (human) (UniProt Q08881)
KIT (human) = KIT (human) (UniProt P10721)
MAP3K2 (human) = MAP3K2 (human) (UniProt Q9Y2U5)
MAP3K7 TAB1 (human) = MAP3K7 TAB1 (human) (UniProt O43318+Q15750)
MAP4K2 (human) = MAP4K2 (human) (UniProt Q12851)
MAPK1 (human) = MAPK1 (human) (UniProt P28482)
MARK3 (human) = MARK3 (human) (UniProt P27448)
MARK4 (human) = MARK4 (human) (UniProt Q96L34)
MST1R (human) = MST1R (human) (UniProt Q04912)
PIM3 (human) = PIM3 (human) (UniProt Q86V86)
PRKD3 (human) = PRKD3 (human) (UniProt O94806)
PTK2B (human) = PTK2B (human) (UniProt Q14289)
RAF1 (human) = RAF1 (human) (UniProt P04049)
ROCK2 (human) = ROCK2 (human) (UniProt O75116)
ROS1 (human) = ROS1 (human) (UniProt P08922)
STK39 (human) = STK39 (human) (UniProt Q9UEW8)
STK4 (human) = STK4 (human) (UniProt Q13043)
TGFBR1 (human) = TGFBR1 (human) (UniProt P36897)
TSSK1B (human) = TSSK1B (human) (UniProt Q9BXA7)
TTK (human) = TTK (human) (UniProt P33981)
TYRO3 (human) = TYRO3 (human) (UniProt Q06418)
ZAP70 (human) = ZAP70 (human) (UniProt P43403)

Sequence of TGFBR1 (human) (P36897 whole entry, looked up): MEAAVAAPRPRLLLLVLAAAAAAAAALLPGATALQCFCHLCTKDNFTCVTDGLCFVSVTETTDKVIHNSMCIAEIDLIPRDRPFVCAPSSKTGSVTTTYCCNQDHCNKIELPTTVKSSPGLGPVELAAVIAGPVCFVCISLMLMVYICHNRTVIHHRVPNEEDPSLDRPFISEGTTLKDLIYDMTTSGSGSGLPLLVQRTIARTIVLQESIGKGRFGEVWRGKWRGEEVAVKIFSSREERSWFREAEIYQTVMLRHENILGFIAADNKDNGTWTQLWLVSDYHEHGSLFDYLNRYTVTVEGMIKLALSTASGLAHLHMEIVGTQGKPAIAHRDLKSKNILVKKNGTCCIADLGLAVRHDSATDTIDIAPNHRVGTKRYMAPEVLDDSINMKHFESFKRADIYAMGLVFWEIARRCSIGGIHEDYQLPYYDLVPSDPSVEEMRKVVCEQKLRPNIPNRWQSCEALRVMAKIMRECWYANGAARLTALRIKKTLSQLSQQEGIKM
Sequence of BRSK1 (human) (Q8TDC3 whole entry, looked up): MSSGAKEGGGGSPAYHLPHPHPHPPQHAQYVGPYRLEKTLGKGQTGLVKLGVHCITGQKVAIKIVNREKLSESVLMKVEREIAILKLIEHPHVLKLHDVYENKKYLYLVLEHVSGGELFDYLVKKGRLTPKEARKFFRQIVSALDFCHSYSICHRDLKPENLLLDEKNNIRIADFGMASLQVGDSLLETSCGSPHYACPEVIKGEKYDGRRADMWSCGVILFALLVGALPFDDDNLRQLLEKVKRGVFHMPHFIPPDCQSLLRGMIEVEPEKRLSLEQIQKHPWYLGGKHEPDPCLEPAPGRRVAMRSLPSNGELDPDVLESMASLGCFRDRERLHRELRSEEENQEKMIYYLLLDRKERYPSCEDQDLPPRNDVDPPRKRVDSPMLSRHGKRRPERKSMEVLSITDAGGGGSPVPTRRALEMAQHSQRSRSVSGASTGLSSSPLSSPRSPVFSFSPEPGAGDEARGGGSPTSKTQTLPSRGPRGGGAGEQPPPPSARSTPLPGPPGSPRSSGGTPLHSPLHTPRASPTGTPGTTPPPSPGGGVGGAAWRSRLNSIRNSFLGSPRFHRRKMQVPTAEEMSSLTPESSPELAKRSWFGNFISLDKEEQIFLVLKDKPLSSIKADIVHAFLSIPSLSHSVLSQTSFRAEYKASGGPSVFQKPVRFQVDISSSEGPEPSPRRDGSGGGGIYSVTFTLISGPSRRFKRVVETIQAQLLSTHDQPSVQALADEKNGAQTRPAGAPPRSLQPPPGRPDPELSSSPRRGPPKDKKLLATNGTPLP
Sequence of ERBB4 (human) (Q15303 whole entry, looked up): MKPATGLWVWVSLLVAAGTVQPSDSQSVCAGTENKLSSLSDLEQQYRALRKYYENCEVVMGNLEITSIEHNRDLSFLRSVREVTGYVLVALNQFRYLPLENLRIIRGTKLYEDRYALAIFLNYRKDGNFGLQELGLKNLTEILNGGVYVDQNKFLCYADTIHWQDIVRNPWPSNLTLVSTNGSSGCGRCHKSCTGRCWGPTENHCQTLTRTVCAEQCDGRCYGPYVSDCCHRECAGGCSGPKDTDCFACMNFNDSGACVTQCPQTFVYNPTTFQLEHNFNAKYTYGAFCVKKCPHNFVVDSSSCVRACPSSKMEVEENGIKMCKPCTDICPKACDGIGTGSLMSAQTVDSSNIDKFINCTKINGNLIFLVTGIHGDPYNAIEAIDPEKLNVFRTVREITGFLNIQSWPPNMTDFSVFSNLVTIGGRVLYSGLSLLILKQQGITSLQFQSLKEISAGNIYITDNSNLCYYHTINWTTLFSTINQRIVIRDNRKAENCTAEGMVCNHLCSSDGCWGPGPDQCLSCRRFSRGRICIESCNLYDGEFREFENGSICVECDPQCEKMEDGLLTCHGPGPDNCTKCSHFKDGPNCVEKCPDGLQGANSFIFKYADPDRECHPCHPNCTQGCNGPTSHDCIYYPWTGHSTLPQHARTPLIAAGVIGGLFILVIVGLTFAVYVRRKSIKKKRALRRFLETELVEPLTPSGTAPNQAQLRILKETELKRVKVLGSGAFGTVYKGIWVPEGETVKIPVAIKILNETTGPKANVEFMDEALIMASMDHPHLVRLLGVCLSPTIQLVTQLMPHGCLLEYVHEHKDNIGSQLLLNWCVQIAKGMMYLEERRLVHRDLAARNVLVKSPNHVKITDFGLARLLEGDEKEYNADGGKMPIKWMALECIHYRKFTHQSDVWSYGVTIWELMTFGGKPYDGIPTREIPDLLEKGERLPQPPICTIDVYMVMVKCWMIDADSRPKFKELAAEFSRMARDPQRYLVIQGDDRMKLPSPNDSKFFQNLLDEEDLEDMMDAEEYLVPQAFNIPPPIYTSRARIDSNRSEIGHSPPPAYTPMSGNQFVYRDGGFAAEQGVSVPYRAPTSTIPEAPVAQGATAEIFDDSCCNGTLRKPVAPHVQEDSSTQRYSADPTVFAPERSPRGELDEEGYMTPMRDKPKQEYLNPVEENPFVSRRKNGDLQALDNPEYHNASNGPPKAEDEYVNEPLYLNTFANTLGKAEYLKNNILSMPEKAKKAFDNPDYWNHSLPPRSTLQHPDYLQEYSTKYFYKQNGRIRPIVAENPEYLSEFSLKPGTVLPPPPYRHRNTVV
Sequence of TSSK1B (human) (Q9BXA7 whole entry, looked up): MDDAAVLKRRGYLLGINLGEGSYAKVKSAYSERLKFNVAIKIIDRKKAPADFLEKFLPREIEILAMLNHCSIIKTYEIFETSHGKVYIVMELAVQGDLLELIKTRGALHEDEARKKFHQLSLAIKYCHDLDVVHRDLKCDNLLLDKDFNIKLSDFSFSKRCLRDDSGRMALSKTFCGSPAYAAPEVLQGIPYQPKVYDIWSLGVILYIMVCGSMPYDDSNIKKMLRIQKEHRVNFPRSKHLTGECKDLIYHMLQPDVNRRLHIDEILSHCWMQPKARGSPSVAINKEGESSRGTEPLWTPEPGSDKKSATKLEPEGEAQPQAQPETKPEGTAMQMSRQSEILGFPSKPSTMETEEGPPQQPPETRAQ
Sequence of CHEK2 (human) (O96017 whole entry, looked up): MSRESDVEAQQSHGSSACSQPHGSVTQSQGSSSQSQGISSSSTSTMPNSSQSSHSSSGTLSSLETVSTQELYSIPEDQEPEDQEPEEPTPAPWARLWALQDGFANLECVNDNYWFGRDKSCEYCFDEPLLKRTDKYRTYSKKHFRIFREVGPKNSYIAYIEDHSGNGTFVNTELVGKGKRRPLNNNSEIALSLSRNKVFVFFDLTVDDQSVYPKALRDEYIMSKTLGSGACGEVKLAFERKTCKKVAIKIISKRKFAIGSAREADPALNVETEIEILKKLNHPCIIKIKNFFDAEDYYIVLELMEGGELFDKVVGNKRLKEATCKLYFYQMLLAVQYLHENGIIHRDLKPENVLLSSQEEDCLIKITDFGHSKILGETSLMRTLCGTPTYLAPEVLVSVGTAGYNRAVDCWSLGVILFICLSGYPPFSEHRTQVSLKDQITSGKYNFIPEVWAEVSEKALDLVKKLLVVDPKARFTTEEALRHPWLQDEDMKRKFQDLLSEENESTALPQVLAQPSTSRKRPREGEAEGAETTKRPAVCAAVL
Sequence of MAPK1 (human) (P28482 whole entry, looked up): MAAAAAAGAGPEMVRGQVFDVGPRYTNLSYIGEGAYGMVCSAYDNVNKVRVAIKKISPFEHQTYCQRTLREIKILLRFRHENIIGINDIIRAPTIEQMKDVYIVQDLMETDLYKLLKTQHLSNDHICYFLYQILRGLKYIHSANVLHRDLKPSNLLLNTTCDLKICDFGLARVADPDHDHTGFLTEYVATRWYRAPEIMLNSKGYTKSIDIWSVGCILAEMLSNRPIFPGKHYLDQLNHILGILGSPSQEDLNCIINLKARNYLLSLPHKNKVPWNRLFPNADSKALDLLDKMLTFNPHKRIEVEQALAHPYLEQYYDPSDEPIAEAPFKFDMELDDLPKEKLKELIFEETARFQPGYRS
Sequence of MARK3 (human) (P27448 whole entry, looked up): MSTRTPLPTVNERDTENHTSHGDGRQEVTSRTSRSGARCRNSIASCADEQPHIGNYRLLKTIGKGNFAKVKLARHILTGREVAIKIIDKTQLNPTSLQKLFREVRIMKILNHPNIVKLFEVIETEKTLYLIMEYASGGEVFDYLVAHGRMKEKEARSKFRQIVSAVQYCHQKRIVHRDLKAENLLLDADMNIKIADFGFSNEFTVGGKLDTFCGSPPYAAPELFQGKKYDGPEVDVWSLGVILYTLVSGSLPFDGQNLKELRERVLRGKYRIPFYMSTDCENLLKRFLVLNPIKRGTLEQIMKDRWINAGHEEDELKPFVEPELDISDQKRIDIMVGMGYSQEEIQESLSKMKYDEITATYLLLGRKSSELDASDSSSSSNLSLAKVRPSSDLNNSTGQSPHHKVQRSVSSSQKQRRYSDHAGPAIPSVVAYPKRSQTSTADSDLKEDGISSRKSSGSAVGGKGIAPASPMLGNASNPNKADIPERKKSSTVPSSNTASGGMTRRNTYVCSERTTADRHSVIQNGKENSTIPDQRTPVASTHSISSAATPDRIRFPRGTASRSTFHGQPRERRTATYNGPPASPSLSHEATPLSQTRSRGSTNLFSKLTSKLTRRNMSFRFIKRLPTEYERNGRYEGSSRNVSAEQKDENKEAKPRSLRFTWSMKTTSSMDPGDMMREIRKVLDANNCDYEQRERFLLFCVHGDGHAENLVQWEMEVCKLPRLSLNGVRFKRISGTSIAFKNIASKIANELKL

## CN(C)C[C@H]1CCn2c(c(C3=C(c4cn(C)c5ccccc45)C(=O)NC3=O)c3ccccc32)C1
ABL1 (human)
  residual activity: 98%
ACVRL1 (human)
  residual activity: 98.5%
BRSK1 (human)
  residual activity: 101%
BRSK2 (human)
  residual activity: 102%
CAMKK1 (human)
  residual activity: 116%
CDK2 CCNA2 (human)
  residual activity: 76.2%
CDK4 CCND3 (human)
  residual activity: 99.7%
CDK9 CCNK (human)
  residual activity: 43.5%
CHEK2 (human)
  residual activity: 95%
CLK3 (human)
  residual activity: 94.7%
CSF1R (human)
  residual activity: 98.1%
CSK (human)
  residual activity: 104%
CSNK1D (human)
  residual activity: 101%
CSNK1E (human)
  residual activity: 99.7%
CSNK2A2 (human)
  residual activity: 92.4%
DCLK2 (human)
  residual activity: 97.8%
EGFR (human)
  residual activity: 95.8%
EPHB3 (human)
  residual activity: 105%
ERBB4 (human)
  residual activity: 84.3%
GSG2 (human)
  residual activity: 100%
ITK (human)
  residual activity: 94.9%
KIT (human)
  residual activity: 92.7%
MAP3K2 (human)
  residual activity: 94.6%
MAP3K7 TAB1 (human)
  residual activity: 95.3%
MAP4K2 (human)
  residual activity: 99%
MAPK1 (human)
  residual activity: 101%
MARK3 (human)
  residual activity: 92.4%
MARK4 (human)
  residual activity: 93.9%
MST1R (human)
  residual activity: 98.3%
PIM3 (human)
  residual activity: 83.1%
PRKD3 (human)
  residual activity: 93.6%
PTK2B (human)
  residual activity: 95.5%
RAF1 (human)
  residual activity: 96.6%
ROCK2 (human)
  residual activity: 98.9%
ROS1 (human)
  residual activity: 87.1%
STK39 (human)
  residual activity: 102%
STK4 (human)
  residual activity: 80.1%
TGFBR1 (human)
  residual activity: 99.8%
TSSK1B (human)
  residual activity: 104%
TTK (human)
  residual activity: 105%
TYRO3 (human)
  residual activity: 99.3%
ZAP70 (human)
  residual activity: 105%
